Assays:
[1] = test system: Bacillus subtilis (ATCC43639); assay: Microtitre plate assay, IC90 determination; assay type: cell-based; conditions: 90% inhibitory concentration for bacterial growth
Description: (§1) The bacteria used in this study were grown overnight in flasks containing 100 ml Mueller-Hinton Broth (Becton Dickinson—cat. no. 275730) in sterile de-ionized water, with shaking, at 37° C. Stocks (0.5 ml/tube) were stored at −70° C. until use. Bacteria titrations were performed in microtiter plates and colony forming units (CFUs) were determined In general, an inoculum level of approximately 100 CFUs was used for susceptibility testing.
(§2) Flat-bottom, sterile 96-well plastic microtiter plates were filled with 180 μl of sterile deionized water, supplemented with 0.25% BSA. Subsequently, stock solutions (7.8× final test concentration) of compounds were added in 45 μl volumes in column 2. Serial five-fold dilutions (45 μl in 180 μl ) were made directly in the microtiter plates from column 2 to reach column 11. Untreated control samples with (column 1) and without (column 12) inoculum were included in each microtiter plate. Depending on the bacteria type, approximately 10 to 60 CFU per well of bacteria inoculum (100 TCID50), in a volume of 100 μl in 2.8× Mueller-Hinton broth medium, was added to the rows A to H, except column 12. The same volume of broth medium without inoculum was added to column 12 in row A to H. The cultures were incubated at 37° C. for 24 hours under a normal atmosphere (incubator with open air valve and continuous ventilation). At the end of incubation, one day after inoculation, the bacterial growth was quantitated fluorometrically. Therefore resazurin (0.6 mg/ml) was added in a volume of 20 μl to all wells 3 hours after inoculation, and the plates were re-incubated overnight. A change in colour from blue to pink indicated the growth of bacteria. The fluorescence was read in a computer-controlled fluorometer (Cytofluor Biosearch) at an excitation wavelength of 530 nm and an emission wavelength of 590 nm. The % growth inhibition achieved by the compounds was calculated according to standard methods. The IC90 (expressed in μg/ml) was defined as the 90% inhibitory concentration for bacterial growth.

[2] = test system: Enterococcus faecalis (ATCC14506); assay: Microtitre plate assay, IC90 determination; assay type: cell-based; conditions: 90% inhibitory concentration for bacterial growth
Description: as §1, §2

[3] = test system: Enterococcus faecalis (ATCC29212); assay: Microtitre plate assay, IC90 determination; assay type: cell-based; conditions: 90% inhibitory concentration for bacterial growth
Description: as §1, §2

[4] = test system: Escherichia coli (ATCC25922); assay: Microtitre plate assay, IC90 determination; assay type: cell-based; conditions: 90% inhibitory concentration for bacterial growth
Description: as §1, §2

[5] = test system: Listeria monocytogenes (ATCC49594); assay: Microtitre plate assay, IC90 determination; assay type: cell-based; conditions: 90% inhibitory concentration for bacterial growth
Description: as §1, §2

[6] = test system: Pseudomonas aeruginosa (ATCC27853); assay: Microtitre plate assay, IC90 determination; assay type: cell-based; conditions: 90% inhibitory concentration for bacterial growth
Description: as §1, §2

[7] = test system: Staphylococcus aureus (ATCC25923); assay: Microtitre plate assay, IC90 determination; assay type: cell-based; conditions: 90% inhibitory concentration for bacterial growth
Description: as §1, §2

[8] = test system: Staphylococcus aureus (ATCC29213); assay: Microtitre plate assay, IC90 determination; assay type: cell-based; conditions: 90% inhibitory concentration for bacterial growth
Description: as §1, §2

[9] = test system: Staphylococcus aureus (ATCC43300); assay: Microtitre plate assay, IC90 determination; assay type: cell-based; conditions: 90% inhibitory concentration for bacterial growth
Description: as §1, §2

[10] = test system: Streptococcus mutans (ATCC33402); assay: Microtitre plate assay, IC90 determination; assay type: cell-based; conditions: 90% inhibitory concentration for bacterial growth
Description: as §1, §2

[11] = test system: Streptococcus pneumoniae (ATCC6305); assay: Microtitre plate assay, IC90 determination; assay type: cell-based; conditions: 90% inhibitory concentration for bacterial growth
Description: as §1, §2

[12] = test system: Streptococcus pyogens (ATCC8668); assay: Microtitre plate assay, IC90 determination; assay type: cell-based; conditions: 90% inhibitory concentration for bacterial growth
Description: as §1, §2

[13] = test system: methicilline resistant Staphylococcus aureus (MRSA) (a clinical isolate from the University of Antwerp); assay: Microtitre plate assay, IC90 determination; assay type: cell-based; conditions: 90% inhibitory concentration for bacterial growth
Description: as §1, §2

S. aureus = assay: Time kill assay; assay type: cell-based, Staphylococcus aureus; conditions: for bactericidal activity in time kill assay: observed at 1 and 10 times MIC90
Text: (§3) Bactericidal or bacteriostatic activity of the compounds may be determined in a time kill assay using the broth microdilution method*. In a time kill assay on Staphylococcus aureus and methicillin resistant S. aureus (MRSA), the starting inoculum of S. aurues and MRSA is 10^6 CFU/ml in Muller Hinton broth. The antibacterial compounds are used at the concentration of 0.1 to 10 times the MIC (i.e. IC90 as determined in microtitre plate assay). Wells receiving no antibacterial agent constitute the culture growth control. The plates containing the microorganism and the test compounds are incubated at 37° C. After 0, 4, 24, and 48 hrs of incubation samples are removed for determination of viable counts by serial dilution (10^−1 to 10^−6) in sterile PBS and plating (200 μl) on Mueller Hinton agar. The plates are incubated at 37° C. for 24 hrs and the number of colonies are determined Killing curves can be constructed by plotting the log10 CFU per ml versus time. A bactericidal effect is commonly defined as 3-log10 decrease in number of CFU per ml as compared to untreated inoculum. The potential carryover effect of the drugs is removed by serial dilutions and counting the colonies at highest dilution used for plating. No carryover effect is observed at the dilution of 10^−2 used for plating. […] Antimicrob. Agents Chemother. 40, 839-845 (1996).
A time kill assay was performed with compound 102 and the control drug ciprofloxacin.

[14] = test system: Escherichia coli (ATCC35218); assay: Microtitre plate assay, IC90 determination; assay type: cell-based; conditions: 90% inhibitory concentration for bacterial growth
Description: as §1, §2

MRSA = assay: Time kill assay; assay type: cell-based, methicillin resistant S. aureus
Text: as §3, with “(1996). […]” for “(1996).”

Row | SMILES | IC90 BSU 43639 [1] | IC90 EFA 14506 [2] | IC90 EFA 29212 [3] | IC90 ECO 25922 [4] | IC90 LMO 49594 [5] | IC90 PAE 27853 [6] | IC90 STA 25923 [7] | IC90 STA 29213 [8] | IC90 STA 43300 [9] | IC90 SMU 33402 [10] | IC90 SPN 6305 [11] | IC90 SPY 8668 [12] | IC90 STA RMETH [13] | MIC (1× MIC used in time kill assay) (S. aureus; MIC i.e. IC90 as determined in microtitre plate assay) | growth in time kill assay (S. aureus; at 0.1 times the MIC) | bactericidal activity in time kill assay (S. aureus) | IC90 ECO 35218 [14] | bactericidal activity in time kill assay (MRSA)
1 | COc1nc2ccc(Br)cc2cc1C(c1ccccc1)C(O)(CC[N+](C)(C)C)c1cccc2ccccc12.[I-] (single isomer, unassigned) [Compound 102] | 2.8 µg/mL | 2.8 µg/mL | 2.8 µg/mL | 13.9 µg/mL | 2.2 µg/mL | 13.9 µg/mL | 2.2 µg/mL | 2.8 µg/mL | 3.5 µg/mL | 2.5 µg/mL | 3.1 µg/mL | 2.5 µg/mL | 2.8 µg/mL | 2.3 µg/mL | followed the control in growth | bactericidal activity | – | –
2 | COc1nc2ccc(Br)cc2cc1C(c1ccccc1)C(O)(CC[N+](C)(C)C)c1cccc2ccccc12.[I-] (single isomer, unassigned) [Compound 103] | 2.8 µg/mL | 2.8 µg/mL | 2.8 µg/mL | 11.1 µg/mL | 0.5 µg/mL | 13.9 µg/mL | 2.2 µg/mL | 2.0 µg/mL | 2.8 µg/mL | 2.8 µg/mL | 3.5 µg/mL | 2.8 µg/mL | 2.2 µg/mL | – | – | – | 17.5 µg/mL | –
3 | O=C(O)c1cn(C2CC2)c2cc(N3CCNCC3)c(F)cc2c1=O [ciprofloxacin, reference compound] | – | – | – | – | – | – | – | – | – | – | – | – | – | – | – | bactericidal activity | – | no bactericidal effect
